Reference: the NIST ThermoML archive (doi:10.1016/j.jct.2012.03.003)

Assay: xn = mol fraction of the nth substance listed
Settings: Liquid, Vibrating tube method

COc1cc2c(cc1O)CC1c3c(cc(O)c(OC)c3-2)CCN1C (stereo not given) [boldine] + CCCO
Settings | mass density [kg/m3]
323.11 K, 16000 kPa, x1 = 0.0112 | 811.88
323.11 K, 16000 kPa, x1 = 0.0142 | 816.47
323.11 K, 17000 kPa, x1 = 0.0112 | 812.65
323.11 K, 17000 kPa, x1 = 0.0142 | 817.24
323.11 K, 18000 kPa, x1 = 0.0112 | 813.42
323.11 K, 18000 kPa, x1 = 0.0142 | 818
323.11 K, 19000 kPa, x1 = 0.0112 | 814.16
323.11 K, 19000 kPa, x1 = 0.0142 | 818.74
323.11 K, 20000 kPa, x1 = 0.0112 | 814.92
323.11 K, 20000 kPa, x1 = 0.0142 | 819.49
323.12 K, 1000 kPa, x1 = 0.0077 | 792.79
323.12 K, 2000 kPa, x1 = 0.0077 | 793.61
323.12 K, 3000 kPa, x1 = 0.0077 | 794.44
323.12 K, 4000 kPa, x1 = 0.0077 | 795.28
323.12 K, 5000 kPa, x1 = 0.0077 | 796.12
323.12 K, 6000 kPa, x1 = 0.0077 | 796.97
323.12 K, 7000 kPa, x1 = 0.0077 | 797.82
323.12 K, 8000 kPa, x1 = 0.0077 | 798.67
323.12 K, 9000 kPa, x1 = 0.0077 | 799.51
323.12 K, 10000 kPa, x1 = 0.0077 | 800.35
323.12 K, 11000 kPa, x1 = 0.0077 | 801.2
323.12 K, 12000 kPa, x1 = 0.0077 | 802.03
323.12 K, 13000 kPa, x1 = 0.0077 | 802.85
323.12 K, 14000 kPa, x1 = 0.0077 | 803.66
323.12 K, 15000 kPa, x1 = 0.0077 | 804.47
323.12 K, 16000 kPa, x1 = 0.0077 | 805.27
323.12 K, 17000 kPa, x1 = 0.0077 | 806.04
323.12 K, 18000 kPa, x1 = 0.0077 | 806.81
323.12 K, 19000 kPa, x1 = 0.0077 | 807.57
323.12 K, 20000 kPa, x1 = 0.0077 | 808.3
323.14 K, 1000 kPa, x1 = 0.0046 | 788.94
323.14 K, 2000 kPa, x1 = 0.0046 | 789.78
323.14 K, 3000 kPa, x1 = 0.0046 | 790.61
323.14 K, 4000 kPa, x1 = 0.0046 | 791.45
323.14 K, 5000 kPa, x1 = 0.0046 | 792.3
323.14 K, 6000 kPa, x1 = 0.0046 | 793.15
323.14 K, 7000 kPa, x1 = 0.0046 | 794.01
323.14 K, 8000 kPa, x1 = 0.0046 | 794.86
323.14 K, 9000 kPa, x1 = 0.0046 | 795.72
323.14 K, 10000 kPa, x1 = 0.0046 | 796.56
323.14 K, 11000 kPa, x1 = 0.0046 | 797.4
323.14 K, 12000 kPa, x1 = 0.0046 | 798.24
323.14 K, 13000 kPa, x1 = 0.0046 | 799.07
323.14 K, 14000 kPa, x1 = 0.0046 | 799.88
323.14 K, 15000 kPa, x1 = 0.0046 | 800.71
323.14 K, 16000 kPa, x1 = 0.0046 | 801.5
323.14 K, 17000 kPa, x1 = 0.0046 | 802.28
323.14 K, 18000 kPa, x1 = 0.0046 | 803.06
323.14 K, 19000 kPa, x1 = 0.0046 | 803.81
323.14 K, 20000 kPa, x1 = 0.0046 | 804.56
333.04 K, 1000 kPa, x1 = 0.0018 | 774.01
333.04 K, 1000 kPa, x1 = 0.0077 | 784.16
333.04 K, 1000 kPa, x1 = 0.0112 | 790.89
333.04 K, 1000 kPa, x1 = 0.0142 | 795.51
333.04 K, 2000 kPa, x1 = 0.0018 | 774.92
333.04 K, 2000 kPa, x1 = 0.0077 | 785.05
333.04 K, 2000 kPa, x1 = 0.0112 | 791.78
333.04 K, 2000 kPa, x1 = 0.0142 | 796.38
333.04 K, 3000 kPa, x1 = 0.0018 | 775.82
333.04 K, 3000 kPa, x1 = 0.0077 | 785.95
333.04 K, 3000 kPa, x1 = 0.0112 | 792.66
333.04 K, 3000 kPa, x1 = 0.0142 | 797.27
333.04 K, 4000 kPa, x1 = 0.0018 | 776.73
333.04 K, 4000 kPa, x1 = 0.0077 | 786.85
333.04 K, 4000 kPa, x1 = 0.0112 | 793.55
333.04 K, 4000 kPa, x1 = 0.0142 | 798.15
333.04 K, 5000 kPa, x1 = 0.0018 | 777.64
333.04 K, 5000 kPa, x1 = 0.0077 | 787.74
333.04 K, 5000 kPa, x1 = 0.0112 | 794.46
333.04 K, 5000 kPa, x1 = 0.0142 | 799.05
333.04 K, 6000 kPa, x1 = 0.0018 | 778.55
333.04 K, 6000 kPa, x1 = 0.0077 | 788.65
333.04 K, 6000 kPa, x1 = 0.0112 | 795.35
333.04 K, 6000 kPa, x1 = 0.0142 | 799.92
333.04 K, 7000 kPa, x1 = 0.0018 | 779.47
333.04 K, 7000 kPa, x1 = 0.0077 | 789.55
333.04 K, 7000 kPa, x1 = 0.0112 | 796.25
333.04 K, 7000 kPa, x1 = 0.0142 | 800.8
333.04 K, 8000 kPa, x1 = 0.0018 | 780.38
333.04 K, 8000 kPa, x1 = 0.0077 | 790.45
333.04 K, 8000 kPa, x1 = 0.0112 | 797.14
333.04 K, 8000 kPa, x1 = 0.0142 | 801.7
333.04 K, 9000 kPa, x1 = 0.0018 | 781.29
333.04 K, 9000 kPa, x1 = 0.0077 | 791.35
333.04 K, 9000 kPa, x1 = 0.0112 | 798.03
333.04 K, 9000 kPa, x1 = 0.0142 | 802.57
333.04 K, 10000 kPa, x1 = 0.0018 | 782.18
333.04 K, 10000 kPa, x1 = 0.0077 | 792.22
333.04 K, 10000 kPa, x1 = 0.0112 | 798.91
333.04 K, 10000 kPa, x1 = 0.0142 | 803.44
333.04 K, 11000 kPa, x1 = 0.0018 | 783.07
333.04 K, 11000 kPa, x1 = 0.0077 | 793.11
333.04 K, 11000 kPa, x1 = 0.0112 | 799.78
333.04 K, 11000 kPa, x1 = 0.0142 | 804.31
333.04 K, 12000 kPa, x1 = 0.0018 | 783.97
333.04 K, 12000 kPa, x1 = 0.0077 | 793.99
333.04 K, 12000 kPa, x1 = 0.0112 | 800.64
333.04 K, 12000 kPa, x1 = 0.0142 | 805.16
333.04 K, 13000 kPa, x1 = 0.0018 | 784.84
333.04 K, 13000 kPa, x1 = 0.0077 | 794.86
333.04 K, 13000 kPa, x1 = 0.0112 | 801.49
333.04 K, 13000 kPa, x1 = 0.0142 | 806.02
333.04 K, 14000 kPa, x1 = 0.0018 | 785.7
333.04 K, 14000 kPa, x1 = 0.0077 | 795.71
333.04 K, 14000 kPa, x1 = 0.0112 | 802.35
333.04 K, 14000 kPa, x1 = 0.0142 | 806.86
333.04 K, 15000 kPa, x1 = 0.0018 | 786.56
333.04 K, 15000 kPa, x1 = 0.0077 | 796.55
333.04 K, 15000 kPa, x1 = 0.0112 | 803.19
333.04 K, 15000 kPa, x1 = 0.0142 | 807.69
333.04 K, 16000 kPa, x1 = 0.0018 | 787.41
333.04 K, 16000 kPa, x1 = 0.0077 | 797.38
333.04 K, 16000 kPa, x1 = 0.0112 | 804
333.04 K, 16000 kPa, x1 = 0.0142 | 808.51
333.04 K, 17000 kPa, x1 = 0.0018 | 788.23
333.04 K, 17000 kPa, x1 = 0.0077 | 798.2
333.04 K, 17000 kPa, x1 = 0.0112 | 804.81
333.04 K, 17000 kPa, x1 = 0.0142 | 809.32
333.04 K, 18000 kPa, x1 = 0.0018 | 789.05
333.04 K, 18000 kPa, x1 = 0.0077 | 799.02
333.04 K, 18000 kPa, x1 = 0.0112 | 805.61
333.04 K, 18000 kPa, x1 = 0.0142 | 810.12
333.04 K, 19000 kPa, x1 = 0.0018 | 789.86
333.04 K, 19000 kPa, x1 = 0.0077 | 799.81
333.04 K, 19000 kPa, x1 = 0.0112 | 806.39
333.04 K, 19000 kPa, x1 = 0.0142 | 810.91
333.04 K, 20000 kPa, x1 = 0.0018 | 790.65
333.04 K, 20000 kPa, x1 = 0.0077 | 800.56
333.04 K, 20000 kPa, x1 = 0.0112 | 807.16
333.04 K, 20000 kPa, x1 = 0.0142 | 811.68
333.07 K, 1000 kPa, x1 = 0.0046 | 780.3
333.07 K, 2000 kPa, x1 = 0.0046 | 781.23
333.07 K, 3000 kPa, x1 = 0.0046 | 782.1
333.07 K, 4000 kPa, x1 = 0.0046 | 783.02
333.07 K, 5000 kPa, x1 = 0.0046 | 783.92
333.07 K, 6000 kPa, x1 = 0.0046 | 784.83
333.07 K, 7000 kPa, x1 = 0.0046 | 785.74
333.07 K, 8000 kPa, x1 = 0.0046 | 786.64
333.07 K, 9000 kPa, x1 = 0.0046 | 787.54
333.07 K, 10000 kPa, x1 = 0.0046 | 788.44
333.07 K, 11000 kPa, x1 = 0.0046 | 789.33
333.07 K, 12000 kPa, x1 = 0.0046 | 790.21
333.07 K, 13000 kPa, x1 = 0.0046 | 791.08
333.07 K, 14000 kPa, x1 = 0.0046 | 791.94
333.07 K, 15000 kPa, x1 = 0.0046 | 792.79
333.07 K, 16000 kPa, x1 = 0.0046 | 793.62
333.07 K, 17000 kPa, x1 = 0.0046 | 794.45
333.07 K, 18000 kPa, x1 = 0.0046 | 795.27
333.07 K, 19000 kPa, x1 = 0.0046 | 796.06
333.07 K, 20000 kPa, x1 = 0.0046 | 796.84
